The values below come from PubChem BioAssay AID1259407 (Chemical Carcinogenesis Research Information System (CCRIS), 2018).

Molecules are shown by their SMILES. Activity calls are given as the source filed them. The rule behind the calls is not given here.

The data set has as its system CCRIS mutagenicity, Ames/micronucleus/aberration tests. Briefly: CCRIS mutagenicity studies.

Consider `CC(=O)[O-].CC(=O)[O-].O.O.O.O.[Co+2]`, for which the mutagenic call (End Point: In vitro chromosomal aberrations, Test System: Chinese hamster lung (CHL/IU) cells, Metabolic Activation: None) was “active; positive (structural changes)”; the mutagenic call (End Point: In vitro chromosomal aberrations, Test System: Chinese hamster lung (CHL/IU) cells, Metabolic Activation: Rat, Liver, S9, Phenobarbital and 5,6-benzoflavone) is “active; positive (structural changes)”; the mutagenic call (Test System: Ames Salmonella typhimurium, Strain/Indicator: TA98, Metabolic Activation: Rat, Liver, S9, Sodium phenobarbital and 5,6-benzoflavone (10%), Method: Preincubation) was “inactive; negative”; the mutagenic call (Test System: Ames Salmonella typhimurium, Strain/Indicator: TA100, Metabolic Activation: Rat, Liver, S9, Sodium phenobarbital and 5,6-benzoflavone (10%), Method: Preincubation) was “inactive; negative”; the mutagenic call (Test System: Ames Salmonella typhimurium, Strain/Indicator: TA1535, Metabolic Activation: None, Method: Preincubation) was “inactive; negative”; the mutagenic call (Test System: Ames Salmonella typhimurium, Strain/Indicator: TA1535, Metabolic Activation: Rat, Liver, S9, Sodium phenobarbital and 5,6-benzoflavone (10%), Method: Preincubation) is “inactive; negative”. Besides, the mutagenic call runs as follows: (Test System: Ames Salmonella typhimurium, Strain/Indicator: TA1537, Metabolic Activation: Rat, Liver, S9, Sodium phenobarbital and 5,6-benzoflavone (10%), Method: Preincubation) “inactive; negative”; (Test System: E. coli, Strain/Indicator: WP2uvrA/pKM101, Metabolic Activation: None, Method: Preincubation) “active; positive”; (Test System: E. coli, Strain/Indicator: WP2uvrA/pKM101, Metabolic Activation: Rat, Liver, S9, Sodium phenobarbital and 5,6-benzoflavone (10%), Method: Preincubation) “inactive; negative”.
Consider `CC[C@@]1(O)C[C@H](O[C@H]2C[C@H](N(C)C)[C@H](O[C@H]3C[C@H](O)[C@H](O[C@H]4C[C@H](O)[C@H](O)[C@H](C)O4)[C@H](C)O3)[C@H](C)O2)c2c(cc3c(c2O)C(=O)c2c(O)ccc(O)c2C3=O)[C@H]1C(=O)OC`, for which the mutagenic call was “inactive; negative” (Test System: AMES SALMONELLA TYPHIMURIUM, Strain/Indicator: TA97, Metabolic Activation: NONE, Method: STANDARD PLATE); “inactive; negative” (Test System: AMES SALMONELLA TYPHIMURIUM, Strain/Indicator: TA98, Metabolic Activation: NONE, Method: STANDARD PLATE); “active; positive” (Test System: AMES SALMONELLA TYPHIMURIUM, Strain/Indicator: TA102, Metabolic Activation: NONE, Method: STANDARD PLATE); “active; positive” (Test System: AMES SALMONELLA TYPHIMURIUM, Strain/Indicator: TA104, Metabolic Activation: NONE, Method: STANDARD PLATE); “inactive; negative” (Test System: AMES SALMONELLA TYPHIMURIUM, Strain/Indicator: TA2637, Metabolic Activation: NONE, Method: STANDARD PLATE).
